Results taken from ChEMBL document CHEMBL2413072, “Synthesis and in vitro anticancer studies of novel C-2 arylidene congeners of lantadenes” (2013).

Experiments:
Type in all cases: functional
K562 [1] = assay: Growth inhibition of human K562 cells assessed as cell growth at 10 uM by sulforhodamine B assay; details: read-out: Activity
SN12C [2] = assay: Growth inhibition of human SN12C cells assessed as growth inhibition at 10 uM by sulforhodamine B assay; details: read-out: GI
M14 [3] = assay: Growth inhibition of human M14 cells assessed as growth inhibition at 10 uM by sulforhodamine B assay; details: read-out: GI
SNB-19 = assay: Growth inhibition of human SNB19 cells assessed as growth inhibition at 10 uM by sulforhodamine B assay; details: read-out: GI
SF-268 = assay: Growth inhibition of human SF268 cells assessed as growth inhibition at 10 uM by sulforhodamine B assay; details: read-out: GI
KM12 = assay: Growth inhibition of human KM12 cells assessed as growth inhibition at 10 uM by sulforhodamine B assay; details: read-out: GI
COLO 205 = assay: Growth inhibition of human COLO205 cells assessed as growth inhibition at 10 uM by sulforhodamine B assay; details: read-out: GI
NCI-H522 [4] = assay: Growth inhibition of human NCI-H522 cells assessed as growth inhibition at 10 uM by sulforhodamine B assay; details: read-out: GI
NCI-H322M = assay: Growth inhibition of human NCI-H322M cells assessed as growth inhibition at 10 uM by sulforhodamine B assay; details: read-out: GI
[5] = Growth inhibition of human EKVX cells assessed as growth inhibition at 10 uM by sulforhodamine B assay; details: read-out: GI
K562 [6] = assay: Growth inhibition of human K562 cells assessed as growth inhibition at 10 uM by sulforhodamine B assay; details: read-out: GI
HL-60(TB) [7] = assay: Growth inhibition of human HL-60(TB) cells assessed as growth inhibition at 10 uM by sulforhodamine B assay; details: read-out: GI
BT-549 = assay: Growth inhibition of human BT549 cells assessed as cell growth at 10 uM by sulforhodamine B assay; details: read-out: Activity
MDA-MB-231 = assay: Growth inhibition of human MDA-MB-231 cells assessed as cell growth at 10 uM by sulforhodamine B assay; details: read-out: Activity
SN12C [8] = assay: Growth inhibition of human SN12C cells assessed as cell growth at 10 uM by sulforhodamine B assay; details: read-out: Activity
RXF 393 = assay: Growth inhibition of human RXF393 cells assessed as cell growth at 10 uM by sulforhodamine B assay; details: read-out: Activity
SK-MEL-28 [9] = assay: Growth inhibition of human SK-MEL-28 cells assessed as cell growth at 10 uM by sulforhodamine B assay; details: read-out: Activity
SW-620 = assay: Growth inhibition of human SW620 cells assessed as cell growth at 10 uM by sulforhodamine B assay; details: read-out: Activity
NCI-H522 [10] = assay: Growth inhibition of human NCI-H522 cells assessed as cell growth at 10 uM by sulforhodamine B assay; details: read-out: Activity
NCI-H226 = assay: Growth inhibition of human NCI-H226 cells assessed as cell growth at 10 uM by sulforhodamine B assay; details: read-out: Activity
A549 [11] = assay: Growth inhibition of human A549/ATCC cells assessed as cell growth at 10 uM by sulforhodamine B assay; details: read-out: Activity
RPMI-8226 [12] = assay: Growth inhibition of human RPMI8226 cells assessed as cell growth at 10 uM by sulforhodamine B assay; details: read-out: Activity
SNB-75 = assay: Growth inhibition of human SNB75 cells assessed as cell growth at 10^-8 M by sulforhodamine B assay; details: read-out: Activity
SF-295 = assay: Growth inhibition of human SF295 cells assessed as cell growth at 10^-8 M by sulforhodamine B assay; details: read-out: Activity
HCT-15 = assay: Growth inhibition of human HCT15 cells assessed as cell growth at 10^-8 M by sulforhodamine B assay; details: read-out: Activity
A549 [13] = assay: Growth inhibition of human A549/ATCC cells assessed as cell growth at 10^-8 M by sulforhodamine B assay; details: read-out: Activity
RPMI-8226 [14] = assay: Growth inhibition of human RPMI8226 cells assessed as cell growth at 10^-8 M by sulforhodamine B assay; details: read-out: Activity
Malme-3M = assay: Growth inhibition of human MALME-3M cells by sulforhodamine B assay
LOX IMVI = assay: Growth inhibition of human LOXIMVI cells by sulforhodamine B assay
SF-539 = assay: Growth inhibition of human SF539 cells assessed as cell growth at 10^-4 M by sulforhodamine B assay; details: read-out: Activity
HCT-116 [15] = assay: Growth inhibition of human HCT116 cells assessed as cell growth at 10^-4 M by sulforhodamine B assay; details: read-out: Activity
NCI-H23 [16] = assay: Growth inhibition of human NCI-H23 cells assessed as cell growth at 10^-4 M by sulforhodamine B assay; details: read-out: Activity
RPMI-8226 [17] = assay: Growth inhibition of human RPMI8226 cells assessed as cell growth at 10^-4 M by sulforhodamine B assay; details: read-out: Activity
HL-60(TB) [18] = assay: Growth inhibition of human HL-60(TB) cells assessed as cell growth at 10^-4 M by sulforhodamine B assay; details: read-out: Activity
ACHN = assay: Growth inhibition of human ACHN cells assessed as cell growth at 10^-6 M by sulforhodamine B assay; details: read-out: Activity
786-0 = assay: Growth inhibition of human 786-0 cells assessed as cell growth at 10^-6 M by sulforhodamine B assay; details: read-out: Activity
IGROV-1 = assay: Growth inhibition of human IGROV1 cells assessed as cell growth at 10^-6 M by sulforhodamine B assay; details: read-out: Activity
SK-MEL-2 = assay: Growth inhibition of human SK-MEL-2 cells assessed as cell growth at 10^-6 M by sulforhodamine B assay; details: read-out: Activity
MDA-MB-435 = assay: Growth inhibition of human MDA-MB-435 cells assessed as cell growth at 10^-6 M by sulforhodamine B assay; details: read-out: Activity
MDA-MB-468 = assay: Growth inhibition of human MDA-MB-468 cells assessed as cell growth at 10^-7 M by sulforhodamine B assay; details: read-out: Activity
SK-MEL-28 [19] = assay: Growth inhibition of human SK-MEL-28 cells assessed as cell growth at 10^-7 M by sulforhodamine B assay; details: read-out: Activity
M14 [20] = assay: Growth inhibition of human M14 cells assessed as cell growth at 10^-7 M by sulforhodamine B assay; details: read-out: Activity
HCT-116 [21] = assay: Growth inhibition of human HCT116 cells assessed as cell growth at 10^-7 M by sulforhodamine B assay; details: read-out: Activity
NCI-H23 [22] = assay: Growth inhibition of human NCI-H23 cells assessed as cell growth at 10^-7 M by sulforhodamine B assay; details: read-out: Activity
[23] = Growth inhibition of human Hs 578T cells assessed as cell growth at 10^-8 M by sulforhodamine B assay; details: read-out: Activity
[24] = Growth inhibition of human NCI-ADR-RES cells assessed as cell growth at 10^-8 M by sulforhodamine B assay; details: read-out: Activity
[25] = read-out: LC50 (the source's name)
[26] = read-out: pLC50 (the source's name) (converted)

Which growth at 10 µM (K562 [1]) does the source give for CC1(C)C[C@@H](O)[C@]2(C(=O)O)CC[C@]3(C)C(=CC[C@@H]4[C@@]5(C)C/C(=C\C=C\c6ccccc6)C(=O)C(C)(C)[C@@H]5CC[C@]43C)[C@@H]2C1 here?
Its growth at 10 µM is 32.4%.

And the inhibition of growth at 10 µM (SN12C [2])?
The inhibition of growth at 10 µM was 54.5%.

And the inhibition of growth at 10 µM (M14 [3])?
The inhibition of growth at 10 µM was 27.1%.

And the inhibition of growth at 10 µM (SNB-19)?
The inhibition of growth at 10 µM was 26.6%.

And the inhibition of growth at 10 µM (SF-268)?
The inhibition of growth at 10 µM was 29.3%.

What about the inhibition of growth at 10 µM (KM12) of the same compound?
The inhibition of growth at 10 µM was 68.2%.

What about the inhibition of growth at 10 µM (COLO 205) of the same compound?
The inhibition of growth at 10 µM was under 10%.

And the inhibition of growth at 10 µM (NCI-H522 [4])?
The inhibition of growth at 10 µM was 52.3%.

What about the inhibition of growth at 10 µM (NCI-H322M) of the same compound?
The inhibition of growth at 10 µM was 28.1%.

What about the inhibition of growth at 10 µM [5] of the same compound?
Its inhibition of growth at 10 µM is 60.6%.

What about the inhibition of growth at 10 µM (K562 [6]) of the same compound?
The inhibition of growth at 10 µM was 67.6%.

And the inhibition of growth at 10 µM (HL-60(TB) [7])?
Its inhibition of growth at 10 µM is 61.2%.

What about the growth at 10 µM (BT-549) of the same compound?
The growth at 10 µM was 70%.

And the growth at 10 µM (MDA-MB-231)?
The growth at 10 µM was 68.9%.

What about the growth at 10 µM (SN12C [8]) of the same compound?
Its growth at 10 µM is 45.5%.

And the growth at 10 µM (RXF 393)?
The growth at 10 µM was 84.1%.

And the growth at 10 µM (SK-MEL-28 [9])?
Its growth at 10 µM is 74.2%.

And the growth at 10 µM (SW-620)?
Its growth at 10 µM is 55.8%.

What about the growth at 10 µM (NCI-H522 [10]) of the same compound?
Its growth at 10 µM is 47.7%.

What about the growth at 10 µM (NCI-H226) of the same compound?
Its growth at 10 µM is 72.3%.

And the growth at 10 µM (A549 [11])?
The growth at 10 µM was 22.7%.

What about the growth at 10 µM (RPMI-8226 [12]) of the same compound?
Its growth at 10 µM is 15.6%.

What about the growth at 0.01 µM (SNB-75) of the same compound?
The growth at 0.01 µM was 89%.

And the growth at 0.01 µM (SF-295)?
Its growth at 0.01 µM is 99%.

And the growth at 0.01 µM (HCT-15)?
Its growth at 0.01 µM is 97%.

What about the growth at 0.01 µM (A549 [13]) of the same compound?
The growth at 0.01 µM was 98%.

What about the growth at 0.01 µM (RPMI-8226 [14]) of the same compound?
Its growth at 0.01 µM is 98%.

And the GI50 (Malme-3M; read-out: GI50)?
Its GI50 is 2570 nM.

And the CC50 (Malme-3M; [25])?
Its CC50 is 59.2 µM.

What about the TGI (Malme-3M; read-out: TGI) of the same compound?
The TGI was 7.23 µM.

And the GI50 (Malme-3M; read-out: pGI50 (converted))?
The GI50 was 2570 nM.

What about the CC50 (Malme-3M; [26]) of the same compound?
The CC50 was 58.9 µM.

And the TGI (Malme-3M; read-out: pTGI (converted))?
The TGI was 7.24 µM.

What about the GI50 (LOX IMVI; read-out: GI50) of the same compound?
Its GI50 is 1900 nM.

What about the CC50 (LOX IMVI; [25]) of the same compound?
Its CC50 is 6.68 µM.

What about the TGI (LOX IMVI; read-out: TGI) of the same compound?
The TGI was 3.56 µM.

What about the GI50 (LOX IMVI; read-out: pGI50 (converted)) of the same compound?
Its GI50 is 1910 nM.

What about the CC50 (LOX IMVI; [26]) of the same compound?
Its CC50 is 6.61 µM.

What about the TGI (LOX IMVI; read-out: pTGI (converted)) of the same compound?
The TGI was 3.55 µM.

What about the growth at 100 µM (SF-539) of the same compound?
The growth at 100 µM was -90%.

And the growth at 100 µM (HCT-116 [15])?
Its growth at 100 µM is -55%.

And the growth at 100 µM (NCI-H23 [16])?
The growth at 100 µM was -83%.

And the growth at 100 µM (RPMI-8226 [17])?
The growth at 100 µM was -6%.

What about the growth at 100 µM (HL-60(TB) [18]) of the same compound?
The growth at 100 µM was -40%.

What about the growth at 1 µM (ACHN) of the same compound?
Its growth at 1 µM is 97%.

And the growth at 1 µM (786-0)?
The growth at 1 µM was 96%.

What about the growth at 1 µM (IGROV-1) of the same compound?
The growth at 1 µM was 113%.

What about the growth at 1 µM (SK-MEL-2) of the same compound?
Its growth at 1 µM is 100%.

What about the growth at 1 µM (MDA-MB-435) of the same compound?
The growth at 1 µM was 95%.

And the growth at 0.1 µM (MDA-MB-468)?
The growth at 0.1 µM was 96%.

And the growth at 0.1 µM (SK-MEL-28 [19])?
The growth at 0.1 µM was 102%.

What about the growth at 0.1 µM (M14 [20]) of the same compound?
The growth at 0.1 µM was 95%.

And the growth at 0.1 µM (HCT-116 [21])?
Its growth at 0.1 µM is 99%.

What about the growth at 0.1 µM (NCI-H23 [22]) of the same compound?
The growth at 0.1 µM was 95%.

And the growth at 0.01 µM [23]?
The growth at 0.01 µM was 97%.

What about the growth at 0.01 µM [24] of the same compound?
The growth at 0.01 µM was 107%.
